Calls of active or inactive are those of the source.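 The calls were made as follows: active = EC50 no more than a set limit of log units above the highest dose; inactive = the rest.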

As usually defined, the EC50 is the midpoint of the concentration-response curve.

The target in the assay is S. pyogenes SKKanGAS, kanamycin survival, BacTiterGlo, 6 h. Briefly: SKKanGAS survival reduction under kanamycin, dose response, streptokinase promoter inhibitor project, SKKanGAS strain, luminescence, dose confirmation (AID 1902).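 Also: lower survival reflects blocked streptokinase promoter driving kanamycin resistance gene.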
With `O=C(Nc1ccc(Cl)c(Cl)c1)O/N=C/c1ccncc1`, the EC50 is 2380 nM.
Consider `Cc1cnc(NC(=O)c2cc3c(C)nn(-c4ccccc4)c3s2)s1`, for which the EC50 is 831 nM.
As for `Oc1c(CN2CCCCC2)cc(Br)c2cccnc12`, the figure is 1120 nM.
As to `CCOC(=O)N1CCN(C(=O)c2ccc3c(c2)NC(=O)/C(=C/c2ccccc2)S3)CC1`, the EC50 was 1590 nM.
For `CCCc1nc2ccccc2c(=O)n1/N=C/c1c(C)[nH]n(-c2ccc(C)cc2)c1=O`, the EC50 was 1230 nM.
As for `COC(=O)c1ccc(Cl)c(NC(=O)CSc2nnc(-c3ccncc3)o2)c1`, the figure is > 15000 nM (inactive).
As for `O=C(CSc1nc2c(cnn2-c2ccccc2)c(=O)[nH]1)N1N=C(c2cccs2)CC1c1ccc(F)cc1` (stereo unspecified), the figure is 1620 nM; as for `CN(C)c1ccc(O)c2c1CC1CC3[C@@H](N(C)C)C(=O)C(C(N)=O)=C(O)[C@]3(O)C(=O)C1=C2O` (stereo partly specified), 95 nM; as for `CC(C)(C)OC(=O)NCCCC[C@H](NC(=O)c1[nH]cnc1C(=O)Nc1ccc(Cl)cc1)C(=O)OC(C)(C)C`, 2190 nM.
Regarding `Cc1ccc(S(=O)(=O)/N=C2\C=C(Nc3cccc(C(=O)O)c3)C(=O)c3ccccc32)cc1`, the EC50 is 2430 nM.
Regarding `c1ccc(OCc2nc3c4c(ncn3n2)-c2ccccc2CC42CCCC2)cc1`, the EC50 is 11700 nM.
As for `COc1cc(-c2c(C#N)c(N)nc3c2c(C)nn3-c2ccc(C)c(C)c2)cc(OC)c1OC`, the concentration for a half-maximal effect (EC50) is 4530 nM.
In the case of `CN1CCN(c2c(F)cc3c(=O)c(C(=O)O)cn4c3c2OCN4C)CC1` it was 3290 nM; in that of `COc1ccc(NS(=O)(=O)c2ccc3ccccc3c2)c2ncccc12`, 1200 nM.
In the case of `CCCOC(=O)c1ccc(Oc2cn[nH]c2-c2ccc(O)cc2O)cc1`, the EC50 was 3340 nM.
In the case of `COc1cccc(C(=O)N2C(C(=O)O)CSC2c2ccccc2Cl)c1` (stereo unspecified) it was > 15000 nM (inactive); in that of `Cc1nc2c(-c3ccccc3)c(C)[nH]n2c(=O)c1Cc1ccccc1`, 6270 nM; in that of `O=C(O)c1cccc(N/N=C/C2=C(Cl)c3cc(Cl)ccc3SC2)c1`, 1770 nM.
For the compound `CCOC(=O)N1CCN(C(=O)c2ccc3c(=O)n(CCC4=CCCCC4)c(=S)[nH]c3c2)CC1`, the EC50 was 7740 nM.
As for `Nc1c(S(=O)(=O)c2cccs2)c2nc3ccccc3nc2n1/N=C/c1cccc(O)c1`, the figure is 4520 nM; as for `Cc1onc(-c2ccccc2)c1C(=O)NNC(=S)NC(=O)c1ccc(Br)cc1`, 174 nM; as for `S=c1[nH]nc(-c2cccs2)n1/N=C/c1cn(-c2ccccc2)nc1-c1ccccc1`, 7780 nM.
For the compound `NS(=O)(=O)c1ccc(N2N=C(c3ccccc3)CC2c2ccc(F)cc2)cc1` (stereo unspecified), the EC50 is 5280 nM.
As for `O=C(CN1C(=O)S/C(=C\C=C\c2ccccc2)C1=O)Nc1ccccc1C(=O)O`, the figure is 5620 nM; as for `Cc1cccc(/C=N/NC(=O)Cc2ccc(Cl)cc2)c1O`, 3530 nM.
With `CCC(=O)NC(c1ccc(C)cc1)c1cc([N+](=O)[O-])c2cccnc2c1O` (stereo unspecified), the EC50 was 1310 nM.
`CC(C)(C)c1cc(C(=O)NNc2cc(C(F)(F)F)ccc2Cl)n(Cc2ccccc2)n1`: the EC50 is 4920 nM.
On to `CC1(C)CC(c2nc(-c3ccc(Cl)cc3)cs2)CCS1` (stereo unspecified), for which the concentration giving a half-maximal response (EC50) was 6700 nM.
`COc1ccc(C(=O)NC(=S)Nc2ccc(N3CCOCC3)c(Cl)c2)cc1[N+](=O)[O-]`: the EC50 is 1970 nM.
Turning to `CC(C)C1Cc2c(sc3[nH]c(=S)n(Cc4ccccc4)c(=O)c23)CO1` (stereo unspecified), the EC50 is 2930 nM.
As for `O=C1C2C(c3ccccc3)=NN(c3ccccc3)C2C(=O)N1c1ccccc1` (stereo unspecified), the EC50 is 704 nM.
As for `CC(=O)NS(=O)(=O)c1ccc(N=c2ssc3c2-c2ccc(C)cc2NC3(C)C)cc1`, the figure is 2920 nM.
For the compound `Oc1c(Br)cc(Br)cc1CNc1ccc(F)cc1`, the EC50 was 8890 nM.
In the case of `CC1CCCN(S(=O)(=O)c2ccc(C(=O)Nc3nnc(C4=COCCO4)o3)cc2)C1` (stereo unspecified) it was 5270 nM; in that of `CCc1ccc(N=C2NC(=O)/C(=C/c3cc(OC)c(O)c(OC)c3)S2)cc1`, 4440 nM; in that of `COC(=O)c1ccc(NC(=O)c2nc(S(=O)(=O)Cc3cccc(C)c3)ncc2Cl)cc1`, 1040 nM.

For the origin of these results see PubChem BioAssay AID1902 (Broad Institute, 2009).
